Laboratory results reported in the supplement of paper PMC10307832.

How the values were obtained:
Test in all cases: relative viability (nuclei count vs DMSO), 5 days (fraction); higher = more cells survive
BI-D1870 = compound: CC(C)CCN1c2nc(Nc3cc(F)c(O)c(F)c3)ncc2N(C)C(=O)C1C [BI-D1870]
In short: (§1)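 A plate was accepted only when its control CV was below 25% and the cells had doubled at least once. Viability is defined from nuclear counts as treated wells divided by vehicle wells, with the median taken across plates. That median covers lung cancer cell lines grown in 1536-well plates, dosed by pinning at five √10-spaced library-drug concentrations, and counted in MetaXpress from 4× Hoechst images after 5 days.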

Zebularine = compound: O=c1ncccn1[C@@H]1O[C@H](CO)[C@@H](O)[C@H]1O [Zebularine]
In short: as §1

BI-D1870 + Alpelisib = compound: CC(C)CCN1c2nc(Nc3cc(F)c(O)c(F)c3)ncc2N(C)C(=O)C1C [BI-D1870] + Cc1nc(NC(=O)N2CCC[C@H]2C(N)=O)sc1-c1ccnc(C(C)(C)C(F)(F)F)c1 [Alpelisib] (partner 2 µM)
In short: (§2)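 The day after seeding in 1536-well plates, lung cancer cell lines were treated by pin tool with a single drug, or with a fixed anchor-drug dose together with five library-drug doses (not always all listed) in √10 steps. After 5 days, a combined fix-and-stain solution (final 0.05% Triton X-100, 1% formaldehyde, 1 ug/ml Hoechst) was added. Nuclei counted on 4× images gave relative viability as treated counts over vehicle counts, reported as the median of duplicate plates.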

Zebularine + Pemetrexed = compound: O=c1ncccn1[C@@H]1O[C@H](CO)[C@@H](O)[C@H]1O [Zebularine] + Nc1nc2[nH]cc(CCc3ccc(C(=O)N[C@@H](CCC(=O)O)C(=O)O)cc3)c2c(=O)[nH]1 [Pemetrexed] (partner 0.2 µM)
In short: as §2

## COR-L23
BI-D1870; 0.04 µM
  relative viability: 1.12
BI-D1870; 0.1265 µM
  relative viability: 0.945
BI-D1870; 0.4 µM
  relative viability: 1.09
BI-D1870; 1.265 µM
  relative viability: 1.13
BI-D1870; 4 µM
  relative viability: 0.83
Zebularine; 1 µM
  relative viability: 1.07
Zebularine; 3.162 µM
  relative viability: 1.05
Zebularine; 10 µM
  relative viability: 0.484
Zebularine; 31.62 µM
  relative viability: 0.504
Zebularine; 100 µM
  relative viability: 0.177
BI-D1870 + Alpelisib; first compound 0.04 µM
  relative viability: 0.978
BI-D1870 + Alpelisib; first compound 0.1265 µM
  relative viability: 0.731
BI-D1870 + Alpelisib; first compound 0.4 µM
  relative viability: 0.875
BI-D1870 + Alpelisib; first compound 1.265 µM
  relative viability: 0.722
BI-D1870 + Alpelisib; first compound 4 µM
  relative viability: 0.449
Zebularine + Pemetrexed; first compound 1 µM
  relative viability: 0.201
Zebularine + Pemetrexed; first compound 3.162 µM
  relative viability: 0.199
Zebularine + Pemetrexed; first compound 10 µM
  relative viability: 0.193
Zebularine + Pemetrexed; first compound 31.62 µM
  relative viability: 0.207
Zebularine + Pemetrexed; first compound 100 µM
  relative viability: 0.168

## COR-L 105
BI-D1870; 0.04 µM
  relative viability: 0.895
BI-D1870; 0.1265 µM
  relative viability: 0.836
BI-D1870; 0.4 µM
  relative viability: 0.949
BI-D1870; 1.265 µM
  relative viability: 0.939
BI-D1870; 4 µM
  relative viability: 0.888
Zebularine; 1 µM
  relative viability: 1.03
Zebularine; 3.162 µM
  relative viability: 0.952
Zebularine; 10 µM
  relative viability: 0.831
Zebularine; 31.62 µM
  relative viability: 1.15
Zebularine; 100 µM
  relative viability: 0.873
BI-D1870 + Alpelisib; first compound 0.04 µM
  relative viability: 1.2
BI-D1870 + Alpelisib; first compound 0.1265 µM
  relative viability: 0.803
BI-D1870 + Alpelisib; first compound 0.4 µM
  relative viability: 1.29
BI-D1870 + Alpelisib; first compound 1.265 µM
  relative viability: 1.09
BI-D1870 + Alpelisib; first compound 4 µM
  relative viability: 1.05
Zebularine + Pemetrexed; first compound 1 µM
  relative viability: 1.26
Zebularine + Pemetrexed; first compound 3.162 µM
  relative viability: 1.06
Zebularine + Pemetrexed; first compound 10 µM
  relative viability: 0.987
Zebularine + Pemetrexed; first compound 31.62 µM
  relative viability: 1.24
Zebularine + Pemetrexed; first compound 100 µM
  relative viability: 0.824

## EKVX
BI-D1870; 0.04 µM
  relative viability: 1.06
BI-D1870; 0.1265 µM
  relative viability: 0.94
BI-D1870; 0.4 µM
  relative viability: 0.889
BI-D1870; 1.265 µM
  relative viability: 1.11
BI-D1870; 4 µM
  relative viability: 0.931
Zebularine; 1 µM
  relative viability: 1.04
Zebularine; 3.162 µM
  relative viability: 0.961
Zebularine; 31.62 µM
  relative viability: 1.03
Zebularine; 100 µM
  relative viability: 0.985
BI-D1870 + Alpelisib; first compound 0.04 µM
  relative viability: 0.957
BI-D1870 + Alpelisib; first compound 0.1265 µM
  relative viability: 0.759
BI-D1870 + Alpelisib; first compound 0.4 µM
  relative viability: 0.85
BI-D1870 + Alpelisib; first compound 1.265 µM
  relative viability: 0.898
BI-D1870 + Alpelisib; first compound 4 µM
  relative viability: 0.664
Zebularine + Pemetrexed; first compound 1 µM
  relative viability: 0.396
Zebularine + Pemetrexed; first compound 3.162 µM
  relative viability: 0.431
Zebularine + Pemetrexed; first compound 31.62 µM
  relative viability: 0.433
Zebularine + Pemetrexed; first compound 100 µM
  relative viability: 0.397

## EMC-BAC-2
BI-D1870; 0.04 µM
  relative viability: 1.1
BI-D1870; 0.1265 µM
  relative viability: 1.01
BI-D1870; 0.4 µM
  relative viability: 0.891
BI-D1870; 1.265 µM
  relative viability: 1.01
BI-D1870; 4 µM
  relative viability: 0.904
Zebularine; 1 µM
  relative viability: 1.07
Zebularine; 3.162 µM
  relative viability: 0.994
Zebularine; 10 µM
  relative viability: 0.775
Zebularine; 31.62 µM
  relative viability: 0.981
Zebularine; 100 µM
  relative viability: 1.06
BI-D1870 + Alpelisib; first compound 0.04 µM
  relative viability: 0.815
BI-D1870 + Alpelisib; first compound 0.1265 µM
  relative viability: 0.649
BI-D1870 + Alpelisib; first compound 0.4 µM
  relative viability: 0.723
BI-D1870 + Alpelisib; first compound 1.265 µM
  relative viability: 0.765
BI-D1870 + Alpelisib; first compound 4 µM
  relative viability: 0.69
Zebularine + Pemetrexed; first compound 1 µM
  relative viability: 0.496
Zebularine + Pemetrexed; first compound 3.162 µM
  relative viability: 0.466
Zebularine + Pemetrexed; first compound 10 µM
  relative viability: 0.428
Zebularine + Pemetrexed; first compound 31.62 µM
  relative viability: 0.458
Zebularine + Pemetrexed; first compound 100 µM
  relative viability: 0.474

## EPLC-272H
BI-D1870; 0.04 µM
  relative viability: 1.12
BI-D1870; 0.1265 µM
  relative viability: 0.802
BI-D1870; 0.4 µM
  relative viability: 0.926
BI-D1870; 1.265 µM
  relative viability: 0.821
BI-D1870; 4 µM
  relative viability: 0.627
Zebularine; 1 µM
  relative viability: 1.14
Zebularine; 3.162 µM
  relative viability: 0.577
Zebularine; 10 µM
  relative viability: 0.558
Zebularine; 31.62 µM
  relative viability: 0.811
Zebularine; 100 µM
  relative viability: 0.724
BI-D1870 + Alpelisib; first compound 0.04 µM
  relative viability: 0.967
BI-D1870 + Alpelisib; first compound 0.1265 µM
  relative viability: 0.878
BI-D1870 + Alpelisib; first compound 0.4 µM
  relative viability: 0.836
BI-D1870 + Alpelisib; first compound 1.265 µM
  relative viability: 1.01
BI-D1870 + Alpelisib; first compound 4 µM
  relative viability: 0.953
Zebularine + Pemetrexed; first compound 1 µM
  relative viability: 0.36
Zebularine + Pemetrexed; first compound 3.162 µM
  relative viability: 0.331
Zebularine + Pemetrexed; first compound 31.62 µM
  relative viability: 0.342
Zebularine + Pemetrexed; first compound 100 µM
  relative viability: 0.264

## H3255
BI-D1870; 0.04 µM
  relative viability: 1.01
BI-D1870; 0.1265 µM
  relative viability: 0.97
BI-D1870; 0.4 µM
  relative viability: 1.04
BI-D1870; 1.265 µM
  relative viability: 1.09
BI-D1870; 4 µM
  relative viability: 0.994
Zebularine; 1 µM
  relative viability: 1.01
Zebularine; 3.162 µM
  relative viability: 0.948
Zebularine; 10 µM
  relative viability: 0.782
Zebularine; 31.62 µM
  relative viability: 0.998
Zebularine; 100 µM
  relative viability: 1.05
BI-D1870 + Alpelisib; first compound 0.04 µM
  relative viability: 0.702
BI-D1870 + Alpelisib; first compound 0.1265 µM
  relative viability: 0.658
BI-D1870 + Alpelisib; first compound 0.4 µM
  relative viability: 0.722
BI-D1870 + Alpelisib; first compound 1.265 µM
  relative viability: 0.894
BI-D1870 + Alpelisib; first compound 4 µM
  relative viability: 0.742
Zebularine + Pemetrexed; first compound 1 µM
  relative viability: 0.641
Zebularine + Pemetrexed; first compound 3.162 µM
  relative viability: 0.576
Zebularine + Pemetrexed; first compound 10 µM
  relative viability: 0.553
Zebularine + Pemetrexed; first compound 31.62 µM
  relative viability: 0.516
Zebularine + Pemetrexed; first compound 100 µM
  relative viability: 0.563

## HARA
BI-D1870; 0.04 µM
  relative viability: 1.03
BI-D1870; 0.1265 µM
  relative viability: 0.905
BI-D1870; 0.4 µM
  relative viability: 0.932
BI-D1870; 1.265 µM
  relative viability: 1.27
BI-D1870; 4 µM
  relative viability: 0.804
Zebularine; 1 µM
  relative viability: 1.09
Zebularine; 3.162 µM
  relative viability: 1.13
Zebularine; 31.62 µM
  relative viability: 1.06
Zebularine; 100 µM
  relative viability: 0.897
BI-D1870 + Alpelisib; first compound 0.04 µM
  relative viability: 0.981
BI-D1870 + Alpelisib; first compound 0.1265 µM
  relative viability: 0.75
BI-D1870 + Alpelisib; first compound 0.4 µM
  relative viability: 0.842
BI-D1870 + Alpelisib; first compound 1.265 µM
  relative viability: 1.02
BI-D1870 + Alpelisib; first compound 4 µM
  relative viability: 0.747
Zebularine + Pemetrexed; first compound 1 µM
  relative viability: 0.295
Zebularine + Pemetrexed; first compound 3.162 µM
  relative viability: 0.253
Zebularine + Pemetrexed; first compound 10 µM
  relative viability: 0.214
Zebularine + Pemetrexed; first compound 31.62 µM
  relative viability: 0.324
Zebularine + Pemetrexed; first compound 100 µM
  relative viability: 0.307

## HCC-15
BI-D1870; 0.04 µM
  relative viability: 1.02
BI-D1870; 0.1265 µM
  relative viability: 0.935
BI-D1870; 0.4 µM
  relative viability: 0.93
BI-D1870; 1.265 µM
  relative viability: 1.02
BI-D1870; 4 µM
  relative viability: 0.725
Zebularine; 1 µM
  relative viability: 1.11
Zebularine; 3.162 µM
  relative viability: 0.974
Zebularine; 10 µM
  relative viability: 0.752
Zebularine; 31.62 µM
  relative viability: 0.906
Zebularine; 100 µM
  relative viability: 0.497
BI-D1870 + Alpelisib; first compound 0.04 µM
  relative viability: 0.907
BI-D1870 + Alpelisib; first compound 0.1265 µM
  relative viability: 0.812
BI-D1870 + Alpelisib; first compound 0.4 µM
  relative viability: 0.882
BI-D1870 + Alpelisib; first compound 1.265 µM
  relative viability: 0.861
BI-D1870 + Alpelisib; first compound 4 µM
  relative viability: 0.646
Zebularine + Pemetrexed; first compound 1 µM
  relative viability: 0.23
Zebularine + Pemetrexed; first compound 3.162 µM
  relative viability: 0.213
Zebularine + Pemetrexed; first compound 10 µM
  relative viability: 0.201
Zebularine + Pemetrexed; first compound 31.62 µM
  relative viability: 0.219
Zebularine + Pemetrexed; first compound 100 µM
  relative viability: 0.186
